Measurements as given in the NIST ThermoML archive (doi:10.1021/je7004374).
Numbers after ± are expanded uncertainties.

Assays:
[1] = Liquid
[2] = refractive index (Na D-line) (dimensionless); conditions: 298.15 K; 101.33 kPa; Liquid; Standard Abbe refractometry

CC(O)CO (centres undefined) [1,2-propanediol]
[1]
Conditions	mass density [kg/m3]
283.16 K, 101.33 kPa	1043.43 ± 0.26
288.15 K, 101.33 kPa	1039.84 ± 0.25
293.15 K, 100 kPa	1036.22 ± 0.25
293.15 K, 10000 kPa	1040.95 ± 0.31
293.15 K, 20000 kPa	1045.52 ± 0.4
293.15 K, 30000 kPa	1049.89 ± 0.49
293.15 K, 40000 kPa	1054.08 ± 0.6
293.15 K, 50000 kPa	1058.13 ± 0.72
293.15 K, 60000 kPa	1062.03 ± 0.86
293.15 K, 70000 kPa	1065.8 ± 1
293.15 K, 80000 kPa	1069.46 ± 1.1
293.15 K, 90000 kPa	1073.01 ± 1.3
293.15 K, 100000 kPa	1076.45 ± 1.5
293.16 K, 101.33 kPa	1036.21 ± 0.25
298.15 K, 100 kPa	1032.55 ± 0.24
298.15 K, 10000 kPa	1037.38 ± 0.3
298.15 K, 20000 kPa	1042.03 ± 0.38
298.15 K, 30000 kPa	1046.08 ± 0.47
298.15 K, 40000 kPa	1050.75 ± 0.58
298.15 K, 50000 kPa	1054.86 ± 0.69
298.15 K, 60000 kPa	1058.82 ± 0.82
298.15 K, 70000 kPa	1062.66 ± 0.96
298.15 K, 80000 kPa	1066.37 ± 1.1
298.15 K, 90000 kPa	1069.96 ± 1.3
298.15 K, 100000 kPa	1073.46 ± 1.4
298.16 K, 101.33 kPa	1032.54 ± 0.24
303.15 K, 100 kPa	1028.84 ± 0.24
303.15 K, 10000 kPa	1033.77 ± 0.29
303.15 K, 20000 kPa	1038.51 ± 0.36
303.15 K, 30000 kPa	1043.04 ± 0.45
303.15 K, 40000 kPa	1047.38 ± 0.55
303.15 K, 50000 kPa	1051.56 ± 0.66
303.15 K, 60000 kPa	1055.59 ± 0.79
303.15 K, 70000 kPa	1059.48 ± 0.92
303.15 K, 80000 kPa	1063.24 ± 1.1
303.15 K, 90000 kPa	1066.89 ± 1.2
303.15 K, 100000 kPa	1070.44 ± 1.4
303.16 K, 101.33 kPa	1028.83 ± 0.24
308.15 K, 100 kPa	1025.1 ± 0.2
308.15 K, 101.33 kPa	1025.09 ± 0.23
308.15 K, 10000 kPa	1030.12 ± 0.28
308.15 K, 20000 kPa	1034.95 ± 0.35
308.15 K, 30000 kPa	1039.56 ± 0.43
308.15 K, 40000 kPa	1043.98 ± 0.52
308.15 K, 50000 kPa	1048.23 ± 0.63
308.15 K, 60000 kPa	1052.32 ± 0.75
308.15 K, 70000 kPa	1056.27 ± 0.88
308.15 K, 80000 kPa	1060.1 ± 1
308.15 K, 90000 kPa	1063.8 ± 1.2
308.15 K, 100000 kPa	1067.39 ± 1.3
313.15 K, 100 kPa	1021.31 ± 0.23
313.15 K, 101.33 kPa	1021.3 ± 0.23
313.15 K, 10000 kPa	1026.44 ± 0.27
313.15 K, 20000 kPa	1031.36 ± 0.33
313.15 K, 30000 kPa	1036.06 ± 0.41
313.15 K, 40000 kPa	1040.55 ± 0.5
313.15 K, 50000 kPa	1044.87 ± 0.6
313.15 K, 60000 kPa	1049.03 ± 0.72
313.15 K, 70000 kPa	1053.04 ± 0.84
313.15 K, 80000 kPa	1056.92 ± 0.98
313.15 K, 90000 kPa	1060.68 ± 1.1
313.15 K, 100000 kPa	1064.32 ± 1.3
318.15 K, 100 kPa	1017.48 ± 0.22
318.16 K, 101.33 kPa	1017.48 ± 0.22
323.15 K, 101.33 kPa	1013.61 ± 0.22
328.16 K, 101.33 kPa	1009.71 ± 0.21
333.15 K, 101.33 kPa	1005.76 ± 0.21
338.16 K, 101.33 kPa	1001.77 ± 0.21
343.15 K, 101.33 kPa	997.745 ± 0.21
348.15 K, 101.33 kPa	993.675 ± 0.21
353.15 K, 101.33 kPa	989.56 ± 0.22
358.15 K, 101.33 kPa	985.405 ± 0.22
363.15 K, 101.33 kPa	981.219 ± 0.23

[1]
Conditions	speed of sound [m/s]
292.87 K, 45590 kPa, Sing-around technique in a fixed-path interferometer	1674.4 ± 2.2
292.87 K, 60790 kPa, Sing-around technique in a fixed-path interferometer	1717.8 ± 2.3
292.87 K, 101320 kPa, Sing-around technique in a fixed-path interferometer	1821.9 ± 2.3
292.88 K, 15200 kPa, Sing-around technique in a fixed-path interferometer	1578.7 ± 2.2
292.88 K, 30390 kPa, Sing-around technique in a fixed-path interferometer	1628.5 ± 2.2
292.88 K, 75990 kPa, Sing-around technique in a fixed-path interferometer	1758.5 ± 2.3
292.88 K, 91180 kPa, Sing-around technique in a fixed-path interferometer	1797.3 ± 2.3
292.92 K, 100 kPa, Sing-around technique in a fixed-path interferometer	1523.1 ± 1.5
293.15 K, 101.33 kPa, Pulse-echo method	1522.4 ± 1.5
298.15 K, 101.33 kPa, Pulse-echo method	1508.4 ± 1.5
298.15 K, 45590 kPa, Sing-around technique in a fixed-path interferometer	1661.6 ± 2.2
298.15 K, 60790 kPa, Sing-around technique in a fixed-path interferometer	1705.2 ± 2.3
298.15 K, 75990 kPa, Sing-around technique in a fixed-path interferometer	1746.5 ± 2.3
298.16 K, 15200 kPa, Sing-around technique in a fixed-path interferometer	1564.2 ± 2.2
298.16 K, 30390 kPa, Sing-around technique in a fixed-path interferometer	1615.1 ± 2.2
298.16 K, 91180 kPa, Sing-around technique in a fixed-path interferometer	1785.6 ± 2.3
298.16 K, 101320 kPa, Sing-around technique in a fixed-path interferometer	1810.5 ± 2.3
298.2 K, 100 kPa, Sing-around technique in a fixed-path interferometer	1508.3 ± 1.5
303.13 K, 60790 kPa, Sing-around technique in a fixed-path interferometer	1693.5 ± 2.3
303.13 K, 101320 kPa, Sing-around technique in a fixed-path interferometer	1799.9 ± 2.3
303.14 K, 15200 kPa, Sing-around technique in a fixed-path interferometer	1551 ± 2.2
303.14 K, 30390 kPa, Sing-around technique in a fixed-path interferometer	1602.4 ± 2.2
303.14 K, 45590 kPa, Sing-around technique in a fixed-path interferometer	1649.6 ± 2.2
303.14 K, 75990 kPa, Sing-around technique in a fixed-path interferometer	1735.4 ± 2.3
303.14 K, 91180 kPa, Sing-around technique in a fixed-path interferometer	1774.8 ± 2.3
303.15 K, 101.33 kPa, Pulse-echo method	1494.3 ± 1.5
303.18 K, 100 kPa, Sing-around technique in a fixed-path interferometer	1494.2 ± 1.5
308.12 K, 60790 kPa, Sing-around technique in a fixed-path interferometer	1682 ± 2.3
308.12 K, 75990 kPa, Sing-around technique in a fixed-path interferometer	1724.1 ± 2.3
308.12 K, 91180 kPa, Sing-around technique in a fixed-path interferometer	1764 ± 2.3
308.12 K, 101320 kPa, Sing-around technique in a fixed-path interferometer	1789.3 ± 2.3
308.13 K, 15200 kPa, Sing-around technique in a fixed-path interferometer	1537.7 ± 2.2
308.13 K, 30390 kPa, Sing-around technique in a fixed-path interferometer	1589.5 ± 2.2
308.13 K, 45590 kPa, Sing-around technique in a fixed-path interferometer	1637.6 ± 2.2
308.15 K, 101.33 kPa, Pulse-echo method	1480.2 ± 1.5
308.17 K, 100 kPa, Sing-around technique in a fixed-path interferometer	1480.1 ± 1.5
313.15 K, 101.33 kPa, Pulse-echo method	1466 ± 1.5
313.31 K, 15200 kPa, Sing-around technique in a fixed-path interferometer	1524.2 ± 2.2
313.31 K, 30390 kPa, Sing-around technique in a fixed-path interferometer	1576.4 ± 2.2
313.31 K, 45590 kPa, Sing-around technique in a fixed-path interferometer	1625 ± 2.2
313.31 K, 60790 kPa, Sing-around technique in a fixed-path interferometer	1669.9 ± 2.3
313.31 K, 75990 kPa, Sing-around technique in a fixed-path interferometer	1712.6 ± 2.3
313.31 K, 91180 kPa, Sing-around technique in a fixed-path interferometer	1752.8 ± 2.3
313.31 K, 101320 kPa, Sing-around technique in a fixed-path interferometer	1778.5 ± 2.3
313.35 K, 100 kPa, Sing-around technique in a fixed-path interferometer	1465.4 ± 1.5

Conditions	refractive index
[2]	1.431 ± 0.0008
